# Results published in US7700631B2, “Phosphodiesterase 4 inhibitors” (Memory Pharmaceuticals Corporation, priority 2002, dated 2010).
# Legend:
# rats [1] = test: Passive Avoidance in Rats, an in vivo Test for Learning and Memory; parameters: species or system rat; settings: MK-801 0.1 mg/kg, compared to the vehicle, p<0.001, 24 hours after shock
# Procedure: The test was performed as previously described (Zhang, H.-T., Crissman, A. M., Dorairaj, N. R., Chandler, L. J., and O'Donnell, J. M., Neuropsychopharmacology, 2000, 23, 198-204.). The apparatus (Model E10-16SC, Coulbourn Instruments, Allentown, Pa.) consisted of a two-compartment chamber with an illuminated compartment connected to a darkened compartment by a guillotine door. The floor of the darkened compartment consisted of stainless steel rods through which an electric foot-shock could be delivered from a constant current source. All experimental groups were first habituated to the apparatus the day before the start of the experiment. During the training, the rat (Male Spraque-Dawley (Harlan) weighing 250 to 350 g) was placed in the illuminated compartment facing away from the closed guillotine door for 1 minute before the door was raised. The latency for entering the darkened compartment was recorded. After the rat entered the darkened compartment, the door was closed and a 0.5 mA electric shock was administered for 3 seconds. […] The latency for entering the darkened compartment was recorded for up to 180 seconds, at which time the trial was terminated.
# (§1) All data were analyzed by analyses of variance (ANOVA); individual comparisons were made using Kewman-Keuls tests. […]
# rats [2] = test: Radial Arm Maze Task in Rats, an In Vivo Test for Learning and Memory; parameters: species or system rat; settings: MK-801 0.1 mg/kg i.p., compared to control, p<0.01
# Procedure: The test was performed as previously described (Zhang, H.-T., Crissman, A. M., Dorairaj, N. R., Chandler, L. J., and O'Donnell, J. M., Neuropsychopharmacology, 2000, 23, 198-204.). Five days after initial housing, rats (male Spraque-Dawley (Harlan) weighing 250 to 350 g) were placed in the eight-arm radial maze (each arm was 60×10×12 cm high; the maze was elevated 70 cm above the floor) for acclimation for two days. Rats were then placed individually in the center of the maze for 5 minutes with food pellets placed close to the food wells, and then, the next day, in the wells at the end of the arms; 2 sessions a day were conducted. Next, four randomly selected arms were then baited with one pellet of food each. The rat was restricted to the center platform (26 cm in diameter) for 15 seconds and then allowed to move freely throughout the maze until it collected all pellets of food or 10 minutes passed, whichever came first. Four parameters were recorded: 1) working memory errors, i.e., entries into baited arms that had already been visited during the same trial; 2) reference memory errors, i.e., entries into unbaited arms; 3) total arm entries; and 4) the test duration (seconds), i.e., the time spent in the collection of all the pellets in the maze. […]
# as §1
compound,measurement,setting,value
C[C@]12N[C@H](Cc3ccccc31)c1ccccc12 [MK-801],latency for entering the darkened compartment,rats [1],markedly reduced this latency
same,frequencies of working and reference memory errors,rats [2],increased the frequencies of both working and reference memory errors
